Biological target: T1, human CTPS1 (Homo sapiens, UniProt P17812)
T1 sequence (P17812 1-591): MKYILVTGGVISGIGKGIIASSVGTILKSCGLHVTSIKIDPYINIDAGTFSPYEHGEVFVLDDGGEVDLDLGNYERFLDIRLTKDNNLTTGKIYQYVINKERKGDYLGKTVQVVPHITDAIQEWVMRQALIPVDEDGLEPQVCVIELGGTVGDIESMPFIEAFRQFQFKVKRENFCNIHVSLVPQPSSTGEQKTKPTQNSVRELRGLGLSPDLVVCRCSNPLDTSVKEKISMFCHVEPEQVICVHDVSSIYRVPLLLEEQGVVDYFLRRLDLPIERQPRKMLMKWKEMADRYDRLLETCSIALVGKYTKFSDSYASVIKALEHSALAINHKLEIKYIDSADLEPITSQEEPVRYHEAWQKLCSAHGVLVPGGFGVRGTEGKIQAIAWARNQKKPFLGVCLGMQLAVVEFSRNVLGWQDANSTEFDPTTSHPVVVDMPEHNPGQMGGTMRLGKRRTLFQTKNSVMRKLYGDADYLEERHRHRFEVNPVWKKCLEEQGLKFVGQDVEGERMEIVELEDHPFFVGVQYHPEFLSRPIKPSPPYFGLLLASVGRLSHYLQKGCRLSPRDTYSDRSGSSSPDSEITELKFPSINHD
Assay: ADP-Glo assay, human CTPS1 enzyme inhibition
Type: biochemical
Details: wild-type human CTPS1, 25 nM enzyme; ADP-Glo; read-out: ADP-Glo_WT_hCTPS1—25 nM_IC50 (IC50)
Outline: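 ADP-Glo luminescence quantified ADP produced by 25 nM purified human CTPS1 (full length, FLAG-His tagged) at 25° C within the linear phase. Final substrates: ATP 120 μM, UTP 160 μM, GTP 60 μM, L-glutamine 100 μM; 1% DMSO; pH 7.4 HEPES buffer with Mg2+, KCl, DTT. Compound pre-incubated with enzyme 10 min, then with ATP/UTP 10 min.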

| IC50 [nM] | Compound |
| --- | --- |
| 50 to 100 | CCOc1cncc(-c2cnc(C(=O)N[C@@H](CN3C[C@H]4CC[C@@H]3C4)c3cc(NS(=O)(=O)C4CC4)ccn3)s2)n1 [I-149, N-((S)-2-((1R,4S)-2-azabicyclo[2.2.1]heptan-2-yl)-1-(4-(cyclopropanesulfonamido)pyridin-2-yl)ethyl)-5-(6-ethoxypyrazin-2-yl)thiazole-2-carboxamide] |
| 5 to 25 | CCOc1cncc(-c2cnc(C(=O)N[C@H](CN3C[C@H]4CC[C@@H]3C4)c3cc(NS(=O)(=O)C4CC4)ccn3)s2)n1 [I-150, N-((R)-2-((1R,4S)-2-azabicyclo[2.2.1]heptan-2-yl)-1-(4-(cyclopropanesulfonamido)pyridin-2-yl)ethyl)-5-(6-ethoxypyrazin-2-yl)thiazole-2-carboxamide] |
| 50 to 100 | CCOc1cncc(-c2cnc(C(=O)N[C@@H](CN3C[C@H]4C[C@@H](C3)C4)c3cc(NS(=O)(=O)C4CC4)ccn3)s2)n1 [I-151, N-((S)-2-((1R,5R)-3-azabicyclo[3.1.1]heptan-3-yl)-1-(4-(cyclopropanesulfonamido)pyridin-2-yl)ethyl)-5-(6-ethoxypyrazin-2-yl)thiazole-2-carboxamide] |
| 5 to 25 | CCOc1cncc(-c2cnc(C(=O)N[C@H](CN3C[C@H]4C[C@@H](C3)C4)c3cc(NS(=O)(=O)C4CC4)ccn3)s2)n1 [I-152, N-((R)-2-((1R,5R)-3-azabicyclo[3.1.1]heptan-3-yl)-1-(4-(cyclopropanesulfonamido)pyridin-2-yl)ethyl)-5-(6-ethoxypyrazin-2-yl)thiazole-2-carboxamide] |
| 25 to 50 | CCOc1cncc(-c2cnc(C(=O)N[C@@H](CN3CC4(CCC4)C3)c3cc(NS(=O)(=O)C4CC4)ccn3)s2)n1 [I-153, (S)-N-(1-(4-(cyclopropanesulfonamido)pyridin-2-yl)-2-(2-azaspiro[3.3]heptan-2-yl)ethyl)-5-(6-ethoxypyrazin-2-yl)thiazole-2-carboxamide] |
| 5 to 25 | CCOc1cncc(-c2cnc(C(=O)N[C@H](CN3CC4(CCC4)C3)c3cc(NS(=O)(=O)C4CC4)ccn3)s2)n1 [I-154, (R)-N-(1-(4-(cyclopropanesulfonamido)pyridin-2-yl)-2-(2-azaspiro[3.3]heptan-2-yl)ethyl)-5-(6-ethoxypyrazin-2-yl)thiazole-2-carboxamide] |
| 5 to 25 | CCOc1cncc(-c2cnc(C(=O)N[C@H](Cn3ccnn3)c3cc(NS(=O)(=O)C4CC4)ccn3)s2)n1 [I-156, (R)-N-(1-(4-(cyclopropanesulfonamido)pyridin-2-yl)-2-(1H-1,2,3-triazol-1-yl)ethyl)-5-(6-ethoxypyrazin-2-yl)thiazole-2-carboxamide] |
| 25 to 50 | CCOc1cncc(-c2cnc(C(=O)N[C@@H](Cn3nccn3)c3cc(NS(=O)(=O)C4CC4)ccn3)s2)n1 [I-157, (S)-N-(1-(4-(cyclopropanesulfonamido)pyridin-2-yl)-2-(2H-1,2,3-triazol-2-yl)ethyl)-5-(6-ethoxypyrazin-2-yl)thiazole-2-carboxamide] |
| 5 to 25 | CCOc1cncc(-c2cnc(C(=O)N[C@H](Cn3nccn3)c3cc(NS(=O)(=O)C4CC4)ccn3)s2)n1 [I-158, (R)-N-(1-(4-(cyclopropanesulfonamido)pyridin-2-yl)-2-(2H-1,2,3-triazol-2-yl)ethyl)-5-(6-ethoxypyrazin-2-yl)thiazole-2-carboxamide] |
| 5 to 25 | O=C(NC(CN1C[C@H]2C[C@@H]1CO2)c1cc(NS(=O)(=O)C2CC2)ccn1)c1ncc(-c2cnn3ccc(Cl)cc23)s1 (stereo partly drawn) [I-159, N-(2-((1R,4R)-2-oxa-5-azabicyclo[2.2.1]heptan-5-yl)-1-(4-(cyclopropanesulfonamido)pyridin-2-yl)ethyl)-5-(5-chloropyrazolo[1,5-a]pyridin-3-yl)thiazole-2-carboxamide] |
| 5 to 25 | CCOc1cncc(-c2cnc(C(=O)N[C@@H](CF)c3cc(NS(=O)(=O)C4CC4)ccn3)s2)n1 [I-160, (R)-N-(1-(4-(cyclopropanesulfonamido)pyridin-2-yl)-2-fluoroethyl)-5-(6-ethoxypyrazin-2-yl)thiazole-2-carboxamide] |
| ≤ 5 | CCOc1cncc(-c2cnc(C(=O)N[C@H](CF)c3cc(NS(=O)(=O)C4CC4)ccn3)s2)n1 [I-161, (S)-N-(1-(4-(cyclopropanesulfonamido)pyridin-2-yl)-2-fluoroethyl)-5-(6-ethoxypyrazin-2-yl)thiazole-2-carboxamide] |

Further lines, the compound ahead of its results:

| Compound | IC50 [nM] |
| --- | --- |
| CCOc1cncc(-c2cnc(C(=O)N[C@H](CN3C[C@@H]4CC[C@H]3CO4)c3cc(NS(=O)(=O)C4CC4)ccn3)s2)n1 [I-136, N-((R)-2-((1S,4S)-2-oxa-5-azabicyclo[2.2.2]octan-5-yl)-1-(4-(cyclopropanesulfonamido)pyridin-2-yl)ethyl)-5-(6-ethoxypyrazin-2-yl)thiazole-2-carboxamide] | 5 to 25 |
| CCOc1cncc(-c2cnc(C(=O)N[C@H](CN3CCCC3=O)c3cc(NS(=O)(=O)C4CC4)ccn3)s2)n1 [I-137, (R)-N-(1-(4-(cyclopropanesulfonamido)pyridin-2-yl)-2-(2-oxopyrrolidin-1-yl)ethyl)-5-(6-ethoxypyrazin-2-yl)thiazole-2-carboxamide] | 25 to 50 |
| CCOc1cncc(-c2cnc(C(=O)N[C@@H](CN3CCCC3=O)c3cc(NS(=O)(=O)C4CC4)ccn3)s2)n1 [I-138, (S)-N-(1-(4-(cyclopropanesulfonamido)pyridin-2-yl)-2-(2-oxopyrrolidin-1-yl)ethyl)-5-(6-ethoxypyrazin-2-yl)thiazole-2-carboxamide] | 5 to 25 |
| CCOc1cncc(-c2cnc(C(=O)N[C@H](Cn3ccccc3=O)c3cc(NS(=O)(=O)C4CC4)ccn3)s2)n1 [I-139, (R)-N-(1-(4-(cyclopropanesulfonamido)pyridin-2-yl)-2-(2-oxopyridin-1(2H)-yl)ethyl)-5-(6-ethoxypyrazin-2-yl)thiazole-2-carboxamide] | 25 to 50 |
| CCOc1cncc(-c2cnc(C(=O)N[C@@H](Cn3ccccc3=O)c3cc(NS(=O)(=O)C4CC4)ccn3)s2)n1 [I-140, (S)-N-(1-(4-(cyclopropanesulfonamido)pyridin-2-yl)-2-(2-oxopyridin-1(2H)-yl)ethyl)-5-(6-ethoxypyrazin-2-yl)thiazole-2-carboxamide] | 5 to 25 |
| CCOc1cncc(-c2cnc(C(=O)N(C)[C@@H](CN3CCOCC3)c3cc(NS(=O)(=O)C4CC4)ccn3)s2)n1 [I-141, (S)-N-(1-(4-(cyclopropanesulfonamido)pyridin-2-yl)-2-morpholinoethyl)-5-(6-ethoxypyrazin-2-yl)-N-methylthiazole-2-carboxamide] | 50 to 100 |
| CCOc1cncc(-c2cnc(C(=O)N(C)[C@H](CN3CCOCC3)c3cc(NS(=O)(=O)C4CC4)ccn3)s2)n1 [I-142, (R)-N-(1-(4-(cyclopropanesulfonamido)pyridin-2-yl)-2-morpholinoethyl)-5-(6-ethoxypyrazin-2-yl)-N-methylthiazole-2-carboxamide] | > 100 |
| CCOc1cncc(-c2ccc(C(=O)N[C@@H](CN3CCOCC3)c3cc(NS(=O)(=O)C4CC4)ccn3)c(F)c2)n1 [I-143, (S)-N-(1-(4-(cyclopropanesulfonamido)pyridin-2-yl)-2-morpholinoethyl)-4-(6-ethoxypyrazin-2-yl)-2-fluorobenzamide] | 50 to 100 |
| CCOc1cncc(-c2ccc(C(=O)N[C@H](CN3CCOCC3)c3cc(NS(=O)(=O)C4CC4)ccn3)c(F)c2)n1 [I-144, (R)-N-(1-(4-(cyclopropanesulfonamido)pyridin-2-yl)-2-morpholinoethyl)-4-(6-ethoxypyrazin-2-yl)-2-fluorobenzamide] | 5 to 25 |
| O=C(N[C@@H](CN1CCOCC1)c1cc(NS(=O)(=O)C2CC2)ccn1)c1ncc(-c2cnn3ccc(Cl)cc23)s1 [I-145, (S)-5-(5-chloropyrazolo[1,5-a]pyridin-3-yl)-N-(1-(4-(cyclopropanesulfonamido)pyridin-2-yl)-2-morpholinoethyl)thiazole-2-carboxamide] | 5 to 25 |
| O=C(N[C@H](CN1CCOCC1)c1cc(NS(=O)(=O)C2CC2)ccn1)c1ncc(-c2cnn3ccc(Cl)cc23)s1 [I-146, (R)-5-(5-chloropyrazolo[1,5-a]pyridin-3-yl)-N-(1-(4-(cyclopropanesulfonamido)pyridin-2-yl)-2-morpholinoethyl)thiazole-2-carboxamide] | 5 to 25 |
| CCOc1cncc(-c2cnc(C(=O)N[C@@H](CN3CCN(C)C(=O)C3)c3cc(NS(=O)(=O)C4CC4)ccn3)s2)n1 [I-147, (S)-N-(1-(4-(cyclopropanesulfonamido)pyridin-2-yl)-2-(4-methyl-3-oxopiperazin-1-yl)ethyl)-5-(6-ethoxypyrazin-2-yl)thiazole-2-carboxamide] | 5 to 25 |
| CCOc1cncc(-c2cnc(C(=O)N[C@H](CN3CCN(C)C(=O)C3)c3cc(NS(=O)(=O)C4CC4)ccn3)s2)n1 [I-148, (R)-N-(1-(4-(cyclopropanesulfonamido)pyridin-2-yl)-2-(4-methyl-3-oxopiperazin-1-yl)ethyl)-5-(6-ethoxypyrazin-2-yl)thiazole-2-carboxamide] | 5 to 25 |

— US20250270200A1, “CTPS1 INHIBITORS AND USES THEREOF” (Nimbus Clotho, Inc., priority 2022, published 2025)
